Measurements published in patent US20250109139A1, “TRICYCLIC COMPOUND, AND PREPARATION METHOD THEREFOR AND USE THEREOF” (SHANGHAITECH UNIVERSITY, priority 2022, published 2025).
Like-named read-outs stand apart in the source and are kept apart here.

Columns and labels:
dopamine D2 receptors [1] = biological target: T1, dopamine D2 receptors (Homo sapiens (Human), UniProt P14416); assay: Dopamine D2 receptor radioligand competition binding assay ([3H]-Methylspiperone); conditions: [3H]-Methylspiperone 0.3 to 0.5 nM, 293T membranes
T1 sequence (P14416 whole entry): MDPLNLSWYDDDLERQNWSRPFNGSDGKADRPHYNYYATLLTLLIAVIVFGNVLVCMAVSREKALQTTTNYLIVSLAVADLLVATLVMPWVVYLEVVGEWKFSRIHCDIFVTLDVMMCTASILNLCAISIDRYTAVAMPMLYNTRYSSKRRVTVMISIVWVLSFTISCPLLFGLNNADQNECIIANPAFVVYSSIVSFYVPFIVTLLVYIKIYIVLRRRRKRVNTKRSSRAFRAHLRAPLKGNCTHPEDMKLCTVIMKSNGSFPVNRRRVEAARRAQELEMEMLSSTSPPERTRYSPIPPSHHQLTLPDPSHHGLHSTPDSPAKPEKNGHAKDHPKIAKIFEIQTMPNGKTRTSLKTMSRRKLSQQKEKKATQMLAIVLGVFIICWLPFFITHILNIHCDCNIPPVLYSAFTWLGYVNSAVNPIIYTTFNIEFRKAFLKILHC
Description: The affinity of the compounds of the present disclosure for dopamine D2 receptors was determined by a radioligand competition binding assay.
In the first step, a cell membrane component containing specific dopamine D2 receptors was prepared. A 10 cm culture dish was used for transfection with […] of dopamine D2 receptors and 40 μL of polyethylenimine (PEI hereafter). […] A vacuum pump was used to suck off the culture medium, 3 mL of lysis buffer was added to each culture dish, and the cells were placed in a 4° C. cold room for 10 minutes. After the cells were detached, the cells were transferred to a 15 mL centrifuge tube and centrifuged at 1500 rpm for 5 minutes at 4° C., and the supernatant was discarded. The cell pellet was transferred to a tissue homogenizer, and 3 mL of lysis buffer was added and fully ground until the cells were broken. Then, cell suspension was equally aliquoted into several EP tubes, centrifuged at 12000 rpm for 5 minutes at 4° C., and the supernatant was discarded. The precipitate was the cell membrane component containing the dopamine D2 receptors.
First, a standard binding buffer was added to the cell membrane component containing the dopamine D2 receptors, and the cell membrane was disrupted and resuspended with an electric tissue homogenizer. 30 μL of membrane protein suspension was added to each well of a 96-well plate. Then, 30 μL of different drugs were added to the 96-well plate sequentially from bottom to top to ensure that the final drug concentrations were 10^−5 M, 10^−6 M, 10^−7 M, 10^−8 M, 10^−9 M, and 0 M, with two replicates per treatment. Next, 30 μL of [3H]-Methylspiperone was added to each well of the 96-well plate. The plate was incubated at room temperature in the dark for 2 hours. Detection was conducted. The machine readout value reflected the amount of [3H]-Methylspiperone bound on the membrane, and after further data processing, the affinity Ki values of different compounds for the dopamine D2 receptors were obtained.

5-HT2A receptors = 5-HT2A receptors (Homo sapiens (Human), UniProt P28223); assay: 5-HT2A receptor radioligand competition binding assay ([3H]-ketanserin)
Chain of 5-HT2A receptors (P28223 whole entry): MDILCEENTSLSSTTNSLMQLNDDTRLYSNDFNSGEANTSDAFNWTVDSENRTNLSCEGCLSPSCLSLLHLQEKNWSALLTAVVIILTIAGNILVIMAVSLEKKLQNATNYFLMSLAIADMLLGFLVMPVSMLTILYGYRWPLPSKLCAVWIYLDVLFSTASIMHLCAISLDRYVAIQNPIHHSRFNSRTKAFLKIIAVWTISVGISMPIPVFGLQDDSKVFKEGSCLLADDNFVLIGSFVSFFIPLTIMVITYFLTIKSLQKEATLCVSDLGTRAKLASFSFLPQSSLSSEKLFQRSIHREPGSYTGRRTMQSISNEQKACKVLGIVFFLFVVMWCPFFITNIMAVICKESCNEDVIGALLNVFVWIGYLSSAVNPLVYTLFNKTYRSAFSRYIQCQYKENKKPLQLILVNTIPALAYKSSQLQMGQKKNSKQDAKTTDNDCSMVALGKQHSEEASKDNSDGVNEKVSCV
Description: The affinity of the compounds of the present disclosure for 5-HT2A receptors was determined by a radioligand competition binding assay. In the first step, a cell membrane component containing specific 5-HT2A receptor was prepared. A 10 cm dish was used for transfection with […] of 5-HT2A receptors and 40 μL of PEI. After 48 hours, the 10 cm dish was taken out from the cell incubator and the cultured cells had expressed the 5-HT2A receptors. A vacuum pump was used to suck off the culture medium, 3 mL of lysis buffer was added to each culture dish, and the cells were placed in a 4° C. cold room for 10 minutes. After the cells were detached, the cells were transferred to a 15 mL centrifuge tube and centrifuged at 1500 rpm for 5 minutes at 4° C., and the supernatant was discarded. The cell pellet was transferred to a tissue homogenizer, and 3 mL of lysis buffer was added and fully ground until the cells were broken. Then, cell suspension was equally aliquoted into several EP tubes, centrifuged at 12000 rpm for 5 minutes at 4° C., and the supernatant was discarded. The precipitate was the cell membrane component containing the 5-HT2A receptors. […] First, a standard binding buffer was added to the cell membrane component containing the 5-HT2A receptors, and the cell membrane was disrupted and resuspended with an electric tissue homogenizer. 30 μL of membrane protein suspension was added to each well of a 96-well plate. Then, 30 μL of different drugs were added to the 96-well plate sequentially from bottom to top to ensure that the final drug concentrations were 10^−5 M, 10^−6 M, 10^−7 M, 10^−8 M, 10^−9 M, and 0 M, with two replicates per treatment. Next, 30 μL of [^3H]-ketanserin was added to each well of the 96-well plate. The plate was incubated at room temperature in the dark for 2 hours. Detection was conducted. The machine readout value reflected the amount of [^3H]-ketanserin bound on the membrane, and after further data processing, the affinity Ki values of different compounds for the 5-HT2A receptors were obtained.

dopamine D2 receptors [2] = biological target: T1, dopamine D2 receptors; assay: Dopamine D2 receptor β-arrestin2 BRET (recruitment); format: cell-based; conditions: for EC50: unit printed only in Cariprazine cell, read-out: β-arrestin2 BRET EC50; for Emax: relative to endogenous ligand dopamine, read-out: β-arrestin2 BRET Emax % ± SEM
Description: (§1) To examine the downstream G-protein signaling pathway mediated by dopamine D2 receptors, on the first day, a 6 cm culture dish was used for transfection with 1 μg of dopamine D2 receptors, 1 μg of Gαi1 containing C-terminal seaweed luciferase (Gαi1-Rluc), 1 μg of Gβ3, 1 μg of Gγ9 containing C-terminal green fluorescent protein (Gγ9-GFP) mixed with 16 μL of PEI. At the same time, in order to examine the downstream β-arrestin2 signaling pathway mediated by dopamine D2 receptors, on the first day, a 6 cm culture dish was used for transfection with […] of dopamine D2 receptors containing C-terminal seaweed luciferase (D2-Rluc), […] of G protein-coupled receptor kinase 2 (GRK2), […] of β-arrestin2 containing N-terminal green fluorescent protein (GFP2-ARRB2) mixed with 14 μL of PEI. The next day, the confluent cells of a 6 cm culture dish were digested and reseeded into a 96-well plate with 100 μL of culture medium added to each well. On the third day, the drugs were added for test. The 96-well plate was taken out from the cell incubator to decant the culture medium, 40 μL of the substrate coelenterazine 400a (final concentration of 5 μM) was added to each well, and then 20 μL of different drugs were added sequentially from left to right to ensure that the final concentration of the drug decreased gradually from bottom to top, with two replicates per treatment. Finally, the prepared samples were loaded on machine for test. The machine readout value reflected the recruitment of β-arrestin2 to the membrane or the dissociation of G protein trimer. The former indicated the degree of activation of the β-arrestin2 signaling pathway downstream of the dopamine D2 receptors, and the latter indicated the degree of activation of the G protein signaling pathway downstream of the dopamine D2 receptors.

[3] = biological target: 5-hydroxytryptamine 1A (5-HT1A) receptors (Homo sapiens (Human), UniProt P08908); assay: 5-HT1A receptor Gαi1 BRET (G protein trimer dissociation); format: cell-based; conditions: relative to endogenous ligand 5-hydroxytryptamine
Chain of 5-hydroxytryptamine 1A (5-HT1A) receptors (P08908 whole entry): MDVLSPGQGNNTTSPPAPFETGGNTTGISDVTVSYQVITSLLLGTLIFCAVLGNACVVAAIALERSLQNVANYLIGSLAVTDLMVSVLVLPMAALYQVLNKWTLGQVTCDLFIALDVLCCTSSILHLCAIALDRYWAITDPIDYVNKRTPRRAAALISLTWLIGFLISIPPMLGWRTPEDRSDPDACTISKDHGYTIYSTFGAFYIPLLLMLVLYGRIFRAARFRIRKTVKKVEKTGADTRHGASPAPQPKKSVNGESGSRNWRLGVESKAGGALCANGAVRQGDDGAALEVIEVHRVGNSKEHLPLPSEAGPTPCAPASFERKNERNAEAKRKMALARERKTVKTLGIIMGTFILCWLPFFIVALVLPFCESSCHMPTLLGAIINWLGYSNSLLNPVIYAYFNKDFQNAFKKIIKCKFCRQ

dopamine D2 receptors [4] = biological target: T1, dopamine D2 receptors; assay: Dopamine D2 receptor Gαi1 BRET (G protein trimer dissociation); format: cell-based; conditions: for Emax: relative to endogenous ligand dopamine, read-out: Gαi1 BRET Emax % ± SEM
Description: as §1

[5] = read-out: Gαi1 BRET pEC50 ± SEM (converted)
[6] = unit printed only in Cariprazine cell, read-out: Gαi1 BRET EC50
[7] = [3H]-ketanserin, 293T membranes, read-out: Ki

SMILES | Affinity pKi ± SEM (dopamine D2 receptors [1]) | Ki (dopamine D2 receptors [1]; read-out: Affinity Ki) [nM] | EC50 (dopamine D2 receptors [2]) [nM] | Emax [3] [%] | Emax (dopamine D2 receptors [2]) [%] | further results
CCOc1cccc2c3c(oc12)CN(CCCCOc1ccc2ccc(=O)[nH]c2c1)CC3 [I-A16, 7-(4-(8-ethoxy-3,4-dihydrobenzofuro[2,3-c]pyridin-2(1H)-yl)butoxy)quinolin-2(1H)-one] | (7.78 ± 0.41) | 16.5 | 11.3 | 85.9 |  | Ki (5-HT2A receptors): 1320 nM; affinity for 5-HT2A receptors (in words) (5-HT2A receptors): very weak affinity; β-arrestin2 BRET pEC50 ± SEM (dopamine D2 receptors [2]): (7.94 ± 0.11)
CC(C)Oc1cccc2c3c(oc12)CN(CCCCOc1ccc2ccc(=O)[nH]c2c1)CC3 [I-A18, 7-(4-(8-isopropoxy-3,4-dihydrobenzofuro[2,3-c]pyridin-2(1H)-yl)butoxy)quinolin-2(1H)-one] | (7.05 ± 0.09) |  |  | 81.9 |  | 
COc1cccc2c3c(oc12)CN(CC1(O)CCCCC1)CC3 [I-A21, 1-((8-methoxy-3,4-dihydrobenzofuro[2,3-c]pyridin-2(1H)-yl)methyl)cyclohexan-1-ol] | (6.28 ± 0.28) | 524 | 23.6 |  | 59 | EC50 (dopamine D2 receptors [4]; [5]): 2.95 nM; Emax (dopamine D2 receptors [4]): 68%; EC50 (dopamine D2 receptors [4]; [6]): 4.61 nM; affinity for 5-HT2A receptors (in words) (5-HT2A receptors): very weak affinity; Ki (5-HT2A receptors; [7]): > 10000 nM
CCOc1cccc2c3c(oc12)CN(CCCCc1ccc2ccc(=O)[nH]c2c1)CC3 [I-A25] |  |  | 54.6 | 78 | 78 | EC50 (dopamine D2 receptors [4]; [5]): 2.04 nM; Emax (dopamine D2 receptors [4]): 40%; EC50 (dopamine D2 receptors [4]; [6]): 1.32 nM
CCOc1cccc2c3c(oc12)CN(CC1(O)CCCCC1)CC3 [I-A28, 1-((8-ethoxy-3,4-dihydrobenzofuro[2,3-c]pyridin-2(1H)-yl)methyl)cyclohexan-1-ol] | (6.99 ± 0.21) | 103 | 238 |  | 82 | EC50 (dopamine D2 receptors [4]; [5]): 44.7 nM; Emax (dopamine D2 receptors [4]): 27%; EC50 (dopamine D2 receptors [4]; [6]): 32.5 nM; affinity for 5-HT2A receptors (in words) (5-HT2A receptors): very weak affinity; Ki (5-HT2A receptors; [7]): > 10000 nM
CCOc1cccc2c3c(oc12)CN(CCCCOc1ccc2c(c1)NC(=O)CO2)CC3 [I-A30, 6-(4-(8-ethoxy-3,4-dihydrobenzofuro[2,3-c]pyridin-2(1H)-yl)butoxy)-2H-benzo[b][1,4]oxazin-3(4H)-one] |  | 151 | 23.7 | 74.5 | 52 | 
CCOc1cccc2c3c(oc12)CN(CCCOc1ccc2c(c1)OCO2)CC3 [I-A31, 2-(3-(benzo[d][1,3]dioxol-5-yloxy)propyl)-8-ethoxy-1,2,3,4-tetrahydrobenzofuro[2,3-c]pyridine] |  |  |  | 104 |  | 
CCOc1cccc2c3c(oc12)CN(CCC1CC(NC(=O)N(C)C)C1)CC3 (centres unmarked) [I-A34, 3-(3-(2-(8-ethoxy-3,4-dihydrobenzofuro[2,3-c]pyridin-2(1H)-yl)ethyl)cyclobutyl)-1,1-dimethylurea] |  | 605 | 2.81 | 38.4 | 33 | Ki (dopamine D2 receptors [1]; read-out: Affinity pKi ± SEM (converted)): 617 nM
CCOc1cccc2c3c(oc12)CN(CCN1CCc2cc(C)ncc2C1=O)CC3 [I-A38, 2-(2-(8-ethoxy-3,4-dihydrobenzofuro[2,3-c]pyridin-2(1H)-yl)ethyl)-6-methyl-3,4-trihydro-2,7-naphthyridin-1(2H)-one] |  |  |  |  |  | Gαi1 BRET Emax % [3]: 116.2%
CCOc1cccc2c3c(oc12)CN(CCCn1ncc(=O)n(C)c1=O)CC3 [I-A44, 2-(3-(8-ethoxy-3,4-dihydrobenzofuro[2,3-c]pyridin-2(1H)-yl)propyl)-4-methyl-1,2,4-triazine-3,5(2H,4H)-dione] |  |  | 206 | 75.9 | 21 | 
CCOc1cccc2c3c(oc12)CN(CCCCN1C(=O)CC(C)(C)CC1=O)CC3 [I-A45, 1-(4-(8-ethoxy-3,4-dihydrobenzofuro[2,3-c]pyridin-2(1H)-yl)butyl)-4,4-dimethylpiperidine-2,6-dione] | (6.14 ± 0.15) | 714 | 25.4 | 74.3 | 30 | 
CCOc1cccc2c3c(oc12)CN(CCCCN1C(=O)CC2(CCCC2)CC1=O)CC3 [I-A46, 8-(4-(8-ethoxy-3,4-dihydrobenzofuro[2,3-c]pyridin-2(1H)-yl)butyl)-8-azaspiro[4.5]decane-7,9-dione] |  |  | 213 | 98.5 | 31 | 
CCOc1cccc2c3c([nH]c12)CN(CC[C@H]1CC[C@H](NC(=O)N(C)C)CC1)CC3 [I-B8, 3-(trans-4-(2-(8-ethoxy-1,3,4,9-tetrahydro-2H-pyrido[3,4-b]indol-2-yl)ethyl)cyclohexyl)-1,1-dimethylurea] | (6.41 ± 0.16) | 381 |  | 37.9 |  | 
CCOc1cccc2c3c([nH]c12)CN(CCC1CC(NC(=O)N(C)C)C1)CC3 (centres unmarked) [I-B11, 3-(3-(2-(8-ethoxy-1,3,4,9-tetrahydro-2H-pyrido[3,4-b]indol-2-yl)ethyl)cyclobutyl)-1,1-dimethylurea] |  |  |  | 22.3 |  | 
